Drawing on patent publication US20240131168A1, “NAPHTHALENE RING-CONTAINING COMPOUND, PHARMACEUTICAL COMPOSITION CONTAINING SAME, AND USE THEREOF” (JIANGSU YAHONG MEDITECH CO., LTD., priority 2021, published 2024), this text covers inhibition and IC50 for 16 compounds.

Common to all, as to assay type: cell-based
For one experiment, the system named is MCF-7. The experiment is described as follows: CellTiter-Glo cell proliferation inhibition, MCF-7 (Effect Example 2). The note with it: Homo sapiens, MCF7, 144 h, MCF-7 (CTG), 6 days, starting concentration 10 μM; for inhibition at up to 10 µM: read-out: IH % max (maximum inhibition percentage). An excerpt:
(§1) 1. Cell line • (1) Breast cancer cell lines and their culture media: • MCF-7 (ATCC; Cat. No.: HTB-22), a Luminal A breast cancer cell; • TamR-MCF-7 (ATCC; Cat. No.: CRL-3435), a breast cancer cell; • MCF-7 ER^D538G: a Luminal A breast cancer cell obtained by constructing MCF-7 (ATCC; Cat. No.: HTB-22) using CRISPR-Cas9 gene editing technology; • MCF-7 ER^Y537S: a Luminal A breast cancer cell obtained by constructing MCF-7 (ATCC; Cat. No.: HTB-22) using CRISPR-Cas9 gene editing technology; • MDA-MB-231: (manufacturer: Nanjing CoBioer Biosciences Co., Ltd.), a triple-negative breast cancer cell; • MDA-MB-468: (manufacturer: Nanjing CoBioer Biosciences Co., Ltd.), a triple-negative breast cancer cell.
(§2) Herein, the culture medium of MCF-7, TamR-MCF-7, MCF-7 ER^D538G, and MCF-7 ER^Y537S was EMEM; • the culture medium of MDA-MB-231 and MDA-MB-468 was DMEM.
(§3) 2. Reagents • Culture medium EMEM (Gibco, 1964507) • Culture medium DMEM (Gibco, 12430-054) • Fetal bovine serum (Gibco, 10091148) • Penicillin-streptomycin double antibody (Gibco, S110JV) • DPBS (Gibco, 14190-144) • CellTiter-Glo® assay kit (Promega, G7573) • Trypsin (0.25%) (Gibco, 25200-056) • DMSO (Sigma, D2650)
(§4) 3. Instruments • Biosafety cabinet (AIRTECH, BSC-1300A II) • Automated cell counter (Life Technologies, countess II) • Multifunctional microplate reader (Biotek, H1FM) • Orbital shaker (Hangzhou Allsheng Instruments Co., Ltd., OS-100) • XLFIT 5.3 (Inforstack Shanghai Co., Ltd.)
(§5) For this test method, the following experiments were performed in a biosafety cabinet, with the specific steps as follows: • (1) Cells were inoculated in a 96-well plate. One day later, the previous culture medium was poured off, 5 mL of DPBS was added to wash the cells, and then DPBS was pipetted and discarded. An appropriate amount of trypsin was then added. The plate was digested in a 37° C., 5% CO2 cell incubator for about 2 to 5 minutes and then taken out. Anew corresponding culture medium was added, and pipetted up and down to resuspend the cells evenly. The cells were then counted using an automated cell counter. • (2) Each cell was inoculated in columns 1 to 11 of a 96-well plate (Corning, Cat. No.: 3610) at a density of 1,000 or 2,000 cells per well in 100 μL of culture medium, and 100 μL of the corresponding culture medium without cells was added to the wells in column 12. The plate was then placed in a 37° C., 5% CO2 incubator for 24 hours. • (3) The compound of the present disclosure and the control drug fulvestrant (Selleck; Cat. No.: S1191) were then 4-fold serially diluted to 10 dose points starting at 10 μM. 10 μL of the serially diluted compound was pipetted and added to 100 μL of cells in columns 1 to 10, and 10 μL of the corresponding culture medium containing 0.33 v % DMSO was added to both columns 11 and 12. The plate was incubated in a 37° C., 5% CO2 incubator for 6 days or 72 hours (Note: column 11 was used as a MAX well with cells but without compound; column 12 was used as a MIN well without cells […]). • (4) The cell viability detection reagent in the CellTiter-Glo® assay kit was then added to the 96-well plate at 50 μL per well according to the instructions, and shaken on an orbital shaker in the dark for 5 to 10 minutes. The cell viability was then measured using a multifunctional microplate reader. Finally, the inhibition of cell proliferation by the compound of the present disclosure was plotted by XLFIT software, and the IC50 value (half inhibitory concentration) and the IH % max (maximum inhibition percentage) of the compound of the present disclosure were calculated.
(ATP-based viability assays read luminescence as a measure of living cells.)

A further experiment has as its system MDA-MB-468. The experiment is described as follows: CellTiter-Glo cell proliferation inhibition, MDA-MB-468. Conditions: Homo sapiens, 144 h, MDA-MB-468 (CTG), 6 days, starting concentration 10 μM; for inhibition at up to 10 µM: read-out: IH % max (maximum inhibition percentage).
From the text: as §1, §2, §3, §4, §5
Compounds D64 to D69 were tested for MDA-MB-231 (CTG) and MDA-MB-468 (CTG) with an incubation time of 72 hours in the incubator.

For another experiment, the system named is MCF-7 ER^D538G. The experiment is described as follows: CellTiter-Glo cell proliferation inhibition, MCF-7 ER^D538G. The note with it: Homo sapiens, MCF7, 144 h; MCF-7 ER^D538G (CTG), 6 days, starting concentration 10 μM; read-out: IH % max (maximum inhibition percentage).
From the text: as §1, §2, §3, §4, §5

The term inhibition denotes the drop in the measured response relative to a control, in per cent. As a reminder, the IC50 is the point on the concentration scale where inhibition reaches its midpoint.

As for `COc1ccc2c(Oc3ccc(OCCN4CCN(c5ccc6c(c5)CN(C5CCC(=O)NC5=O)C6=O)CC4)cc3)c(-c3ccc(S(C)(=O)=O)cc3)ccc2c1` (stereo not shown) [Compound D3, 3-(5-(4-(2-(4-((6-methoxy-2-(4-(methylsulfonyl)phenyl)naphthalen-1-yl)oxy)phenoxy)ethyl)piperazin-1-yl)-1-oxoisoindolin-2-yl)piperidine-2,6-dione], the results for the inhibition at up to 10 µM in the experiment on MCF-7 and in the experiment on MDA-MB-468 were 30% and 73%, respectively. For the same compound, in the experiment on MDA-MB-468, the 50% inhibitory concentration (IC50) was found to be 18.6 nM.

For `CS(=O)(=O)c1ccc(-c2ccc3cc(O)ccc3c2Oc2ccc(OCC(=O)N3CCN(c4ccc5c(c4)CN(C4CCC(=O)NC4=O)C5=O)CC3)cc2)cc1` (stereo not shown) [Compound D54, 3-(5-(4-(2-(4-((6-hydroxy-2-(4-(methylsulfonyl)phenyl)naphthalen-1-yl)oxy)phenoxy)acetyl)piperazin-1-yl)-1-oxoisoindolin-2-yl)piperidine-2,6-dione], in the experiment with MCF-7, the IC50 was determined as 13.2 nM and the inhibition at up to 10 µM came to 96.5%.

Consider `CCN(CCOCCOCCOCCNc1ccc2c(c1)C(=O)N(C1CCC(=O)NC1=O)C2=O)CCOc1ccc(Oc2c(-c3ccc(S(C)(=O)=O)cc3)ccc3cc(O)ccc23)cc1` (stereo not shown) [Compound D62, 2-(2,6-dioxopiperidin-3-yl)-5-((3-ethyl-1-(4-((6-hydroxy-2-(4-(methylsulfonyl)phenyl)naphthalen-1-yl)oxy)phenoxy)-6,9,12-trioxa-3-azatetradecan-14-yl)amino)isoindoline-1,3-dione], for which the inhibition at up to 10 µM with MCF-7 amounted to 45.1%; in the experiment with MDA-MB-468, 98.5%.

As for `CS(=O)(=O)c1ccc(-c2ccc3cc(O)ccc3c2Oc2ccc(OCCOCCOCCOCCNc3cccc4c3CN(C3CCC(=O)NC3=O)C4=O)cc2)cc1` (stereo not shown) [Compound D20, 3-(4-((2-(2-(2-(2-(4-((6-hydroxy-2-(4-(methylsulfonyl)phenyl)naphthalen-1-yl)oxy)phenoxy)ethoxy)ethoxy)ethoxy)ethyl)amino)-1-oxoisoindolin-2-yl)piperidine-2,6-dione], the inhibition at up to 10 µM in the experiment on MCF-7 was 38%.

On to `CCN(CCOCC(=O)N1CCN(c2ccc3c(c2)C(=O)N(C2CCC(=O)NC2=O)C3)CC1)CCOc1ccc(Oc2c(-c3ccc(S(C)(=O)=O)cc3)ccc3cc(O)ccc23)cc1` (stereo not shown) [Compound D50], for which, in the experiment on MCF-7, the inhibition at up to 10 µM worked out at 48.4%.

Turning to `CCN(CCOc1ccc(Oc2c(-c3ccc(S(C)(=O)=O)cc3)ccc3cc(O)ccc23)cc1)CCN1CCN(c2ccc3c(c2)C(=O)N(C2CCC(=O)NC2=O)C3)CC1` (stereo not shown) [Compound D56], in the experiment on MCF-7, the inhibition at up to 10 µM is 55.6%.

Take `CCN(CCOCCN1CCN(c2ccc3c(c2)C(=O)N(C2CCC(=O)NC2=O)C3)CC1)CCOc1ccc(Oc2c(-c3ccc(S(C)(=O)=O)cc3)ccc3cc(O)ccc23)cc1` (stereo not shown) [Compound D51]: in the experiment with MCF-7, the IC50 worked out at 143 nM and the inhibition at up to 10 µM came to 52.9%.

As to `CS(=O)(=O)c1ccc(-c2ccc3cc(O)ccc3c2Oc2ccc(OCCOCCN3CCN(c4ccc5c(c4)C(=O)N(C4CCC(=O)NC4=O)C5)CC3)cc2)cc1` (stereo not shown) [Compound D43, 3-(6-(4-(2-(2-(4-((6-hydroxy-2-(4-(methylsulfonyl)phenyl)naphthalen-1-yl)oxy)phenoxy)ethoxy)ethyl)piperazin-1-yl)-1-oxoisoindolin-2-yl)piperidine-2,6-dione], the inhibition at up to 10 µM in the experiment on MCF-7 and with MCF-7 ER^D538G was 36% each time.

For the compound `CCN(CCOCCOCC(=O)N1CCN(c2ccc3c(c2)CN(C2CCC(=O)NC2=O)C3=O)CC1)CCOc1ccc(Oc2c(-c3ccc(S(C)(=O)=O)cc3)ccc3cc(O)ccc23)cc1` (stereo not shown) [Compound D46], the inhibition at up to 10 µM in the experiment on MCF-7 is 34%; in the experiment with MCF-7 ER^D538G, 46%.

In the case of `CCN(CCOCCOCC(=O)N1CCN(c2ccc3c(c2)C(=O)N(C2CCC(=O)NC2=O)C3)CC1)CCOc1ccc(Oc2c(-c3ccc(S(C)(=O)=O)cc3)ccc3cc(O)ccc23)cc1` (stereo not shown) [Compound D44], the inhibition at up to 10 µM with MCF-7 was found to be 33%; with MCF-7 ER^D538G, 52%.

Take `CS(=O)(=O)c1ccc(-c2ccc3cc(O)ccc3c2Oc2ccc(OCCOCCOCCOCCNc3ccc4c(c3)C(=O)N(C3CCC(=O)NC3=O)C4)cc2)cc1` (stereo not shown) [Compound D29]: the inhibition at up to 10 µM in the experiment on MCF-7 and in the experiment with MCF-7 ER^D538G was 47% throughout.

On to `CS(=O)(=O)c1ccc(-c2ccc3cc(O)ccc3c2Oc2ccc(OCCN3CCN(c4cccc5c4CN(C4CCC(=O)NC4=O)C5=O)CC3)cc2)cc1` (stereo not shown) [Compound D53, 3-(4-(4-(2-(4-((6-hydroxy-2-(4-(methylsulfonyl)phenyl)naphthalen-1-yl)oxy)phenoxy)ethyl)piperazin-1-yl)-1-oxoisoindolin-2-yl)piperidine-2,6-dione], for which the inhibition at up to 10 µM is 49.7% in the experiment with MCF-7 and 99.2% with MDA-MB-468.

With `CS(=O)(=O)c1ccc(-c2ccc3cc(O)ccc3c2Oc2ccc(OCCCCN3CCN(c4ccc5c(c4)C(=O)N(C4CCC(=O)NC4=O)C5=O)CC3)cc2)cc1` (stereo not shown) [Compound D13, 2-(2,6-dioxopiperidin-3-yl)-5-(4-(4-(4-((6-hydroxy-2-(4-(methylsulfonyl)phenyl)naphthalen-1-yl)oxy)phenoxy)butyl)piperazin-1-yl)isoindoline-1,3-dione], the inhibition at up to 10 µM in the experiment on MCF-7 turned out to be 34%.

In the case of `CS(=O)(=O)c1ccc(-c2ccc3cc(O)ccc3c2Oc2ccc(OCCOCCOCCN3CCN(c4cccc5c4CN(C4CCC(=O)NC4=O)C5=O)CC3)cc2)cc1` (stereo not shown) [Compound D37, 3-(4-(4-(2-(2-(2-(4-((6-hydroxy-2-(4-(methylsulfonyl)phenyl)naphthalen-1-yl)oxy)phenoxy)ethoxy)ethoxy)ethyl)piperazin-1-yl)-1-oxoisoindolin-2-yl)piperidine-2,6-dione], the values for the inhibition at up to 10 µM in the experiment with MCF-7 and with MCF-7 ER^D538G were 49% and 52%, respectively.

As to `CCN(CCCCCCCCCc1ccc2c(c1)C(=O)N(C1CCC(=O)NC1=O)C2=O)CCOc1ccc(Oc2c(-c3ccc(S(C)(=O)=O)cc3)ccc3cc(O)ccc23)cc1` (stereo not shown) [Compound D63, 2-(2,6-dioxopiperidin-3-yl)-5-(9-(ethyl(2-(4-((6-hydroxy-2-(4-(methylsulfonyl)phenyl)naphthalen-1-yl)oxy)phenoxy)ethyl)amino)nonyl)isoindoline-1,3-dione], in the experiment on MCF-7, the IC50 is 153 nM and the inhibition at up to 10 µM was determined as 98.9%.

In the case of `COc1ccc2c(Oc3ccc(OCCCCN4CCN(c5ccc6c(c5)CN(C5CCC(=O)NC5=O)C6=O)CC4)cc3)c(-c3ccc(S(C)(=O)=O)cc3)ccc2c1` (stereo not shown) [Compound D58, 3-(5-(4-(4-(4-((6-methoxy-2-(4-(methylsulfonyl)phenyl)naphthalen-1-yl)oxy)phenoxy)butyl)piperazin-1-yl)-1-oxoisoindolin-2-yl)piperidine-2,6-dione], the inhibition at up to 10 µM with MCF-7 stood at 39%.
